In US20090318527A1, “INDOLE COMPOUNDS AND METHODS OF USE THEREOF” (priority 2008, published 2009):
Counter-ions that a name gives are not always drawn.

Tests used:
[1] = target: T1, human 5-HT2A receptor (Homo sapiens, UniProt P28223); assay: Intracellular calcium flux assay, HEK 293 cells stably expressing 5-HT2A; assay type: cell-based; details: for 5-HT2A efficacy as percentage of the maximal 5-HT response ± SD / EC50: calcium flux, at least three independent experiments; for 5-HT2A response as percentage of the maximal 5-HT response @ 10,000: EC50 not reached; for EC50: each in triplicate, read-out: 5-HT2A mean EC50 ± SD; for Emax at 10 µM: HEK293, read-out: 5-HT2A functional activity (N/A class);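 as to all read-outs here: fluorescent calcium dye read on FLIPR Tetra, peak signal above baseline within 60 s after compound addition, seven concentrations spanning 10 pM to 10 µM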
T1 construct: expressed in transfected cells; host or cells: HEK 293

[2] = target: T2, 5-HT2C (Homo sapiens, UniProt P28335); assay: Intracellular calcium flux assay, HEK 293 cells stably expressing 5-HT2C; assay type: cell-based; set-up: expressed in transfected cells; host or cells: HEK 293; details: for Emax: HEK293, read-out: 5-HT2C efficacy as percentage of the maximal 5-HT response ± SD, at least three independent experiments, entries marked a (42, 50, 51, 52) single measurements; for EC50: read-out: 5-HT2C mean EC50 ± SD;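 as to all read-outs here: calcium dye fluorescence read on FLIPR Tetra as peak signal above baseline within 60 s of compound addition, seven concentrations from 10 pM to 10 µM, each in triplicate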
T2 sequence (P28335 33-458): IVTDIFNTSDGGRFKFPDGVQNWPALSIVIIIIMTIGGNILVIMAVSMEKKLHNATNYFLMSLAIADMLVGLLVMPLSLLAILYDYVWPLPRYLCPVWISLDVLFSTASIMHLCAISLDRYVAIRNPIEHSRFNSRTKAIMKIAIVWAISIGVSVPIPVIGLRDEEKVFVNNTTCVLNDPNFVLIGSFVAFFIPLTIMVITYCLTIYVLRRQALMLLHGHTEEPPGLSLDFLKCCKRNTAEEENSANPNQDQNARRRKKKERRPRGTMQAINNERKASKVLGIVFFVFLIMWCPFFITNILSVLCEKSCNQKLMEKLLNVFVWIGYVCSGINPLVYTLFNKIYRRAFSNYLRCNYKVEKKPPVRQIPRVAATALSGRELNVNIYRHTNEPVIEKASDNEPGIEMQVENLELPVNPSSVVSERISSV

[3] = target: T3, human 5-HT2B receptor (Homo sapiens, UniProt P41595); assay: Intracellular calcium flux assay, HEK 293 cells stably expressing 5-HT2B; assay type: cell-based; details: for Emax at 10 µM: HEK293, read-out: 5-HT2B functional activity (N/A class); for EC50 / Emax: calcium flux, at least three independent experiments; for EC50: each in triplicate, read-out: 5-HT2B mean EC50 ± SD; for Emax: HEK293, read-out: 5-HT2B efficacy as percentage of the maximal 5-HT response ± SD;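 as to all read-outs here: calcium dye fluorescence read on a FLIPR Tetra, peak signal above baseline within 60 s after compound addition, seven-point concentration series from 10 pM up to 10 µM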
T3 construct: expressed in transfected cells; host or cells: HEK 293

[4] = at least three independent experiments, entries marked a (42, 50, 51, 52) single measurements

T1 sequence (P28223 whole entry): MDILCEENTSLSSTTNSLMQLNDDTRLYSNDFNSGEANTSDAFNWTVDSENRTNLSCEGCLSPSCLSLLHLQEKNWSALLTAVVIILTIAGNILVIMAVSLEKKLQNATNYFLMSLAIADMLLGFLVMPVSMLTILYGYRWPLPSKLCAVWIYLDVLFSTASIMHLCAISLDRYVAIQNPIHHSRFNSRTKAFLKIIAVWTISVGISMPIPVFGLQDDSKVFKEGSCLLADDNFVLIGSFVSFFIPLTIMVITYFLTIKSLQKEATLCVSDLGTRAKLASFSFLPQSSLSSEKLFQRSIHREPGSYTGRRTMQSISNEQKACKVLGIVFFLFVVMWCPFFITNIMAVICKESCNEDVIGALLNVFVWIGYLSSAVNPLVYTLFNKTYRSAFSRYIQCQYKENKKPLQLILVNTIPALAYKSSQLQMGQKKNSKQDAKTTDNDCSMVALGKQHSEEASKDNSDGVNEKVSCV
T3 sequence (P41595 whole entry): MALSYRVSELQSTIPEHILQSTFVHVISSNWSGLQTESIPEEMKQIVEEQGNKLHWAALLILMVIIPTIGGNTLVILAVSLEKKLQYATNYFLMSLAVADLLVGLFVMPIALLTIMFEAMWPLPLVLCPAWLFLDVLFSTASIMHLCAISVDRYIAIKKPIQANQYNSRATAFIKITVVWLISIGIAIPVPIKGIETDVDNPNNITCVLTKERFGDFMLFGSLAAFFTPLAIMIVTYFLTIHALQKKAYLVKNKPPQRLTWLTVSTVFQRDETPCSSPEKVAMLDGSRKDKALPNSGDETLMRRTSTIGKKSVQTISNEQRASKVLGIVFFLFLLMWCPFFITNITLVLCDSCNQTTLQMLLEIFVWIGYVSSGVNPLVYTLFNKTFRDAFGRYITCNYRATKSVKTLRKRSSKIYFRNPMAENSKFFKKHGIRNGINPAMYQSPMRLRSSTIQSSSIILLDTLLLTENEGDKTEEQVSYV

Row | Structure (SMILES) | melting point [°C] | 5-HT2A efficacy as percentage of the maximal 5-HT response ± SD [1] | Emax [2] [%] | EC50 [2, 4] [nM] | Emax at 10 µM ([3]; at 10,000 nM) [%] | 5-HT2A response as percentage of the maximal 5-HT response @ 10,000 ([1]; at 10,000 nM) | EC50 [1] [nM] | 5-HT2B response as percentage of the maximal 5-HT response @ 10,000 ([3]; at 10,000 nM, EC50 not reached) | EC50 [3] [nM] | Emax [3] [%] | Emax at 10 µM ([1]; at 10,000 nM) [%] | 5-HT2C efficacy as percentage of the maximal 5-HT response ± SD [2, 4] | 5-HT2B functional activity (N/A class) ([3]; at 10,000 nM) | 5-HT2A functional activity (N/A class) ([1]; at 10,000 nM)
1 | CCCOc1c(F)ccc2c1c(CCN(C)C)cn2CCC.Cl | 142 to 145 |  |  |  |  |  |  |  |  |  |  |  |  | 
2 | NCCc1c[nH]c2ccc(O)cc12 [Compound 5-HT, 5-hydroxytryptamine, reference compound] |  | (100%) |  |  |  |  |  |  |  |  |  |  |  | 
3 | CCn1cc(CCN(C)C)c2c(OC)ccc(F)c21 [Compound 23, 2-(1-Ethyl-7-fluoro-4-methoxy-1H-indol-3-yl)-N,N-dimethylethanamine] |  |  | 71 | 13 ± 1.74 | < 10 | (17 ± 3.7 @ 10,000) % | > 10000 |  |  |  |  |  |  | 
4 | CCOc1ccc(F)c2c1c(CCN(C)C)cn2CC [Compound 24, 2-(4-Ethoxy-1-ethyl-7-fluoro-1H-indol-3-yl)-N,N-dimethylethanamine] | 59 to 60 |  | 77 | 57 ± 17.1 |  | (21 ± 5.5 @ 10,000) % | > 2000 | (14 ± 4.8 @ 10,000) % | > 5000 |  |  |  |  | 
5 | CCCOc1ccc(F)c2c1c(CCN(C)C)cn2CC [Compound 25, 2-(1-Ethyl-7-fluoro-4-propoxy-1H-indol-3-yl)-N,N-dimethylethanamine] | 49 to 50 |  | 75 | 168 ± 27.2 |  |  |  |  | 1450 | 31 | < 10 |  |  | 
6 | CCOc1ccc(F)c2c1c(CCN(C)C)cn2C [Compound 26, 2-(4-Ethoxy-7-fluoro-1-methyl-1H-indol-3-yl)-N,N-dimethylethanamine] |  | (25 ± 4.1%) | 82 | 43 ± 18.8 |  |  | 1490 |  | 217 ± 95.9 | 28 |  |  |  | 
7 | CCCOc1ccc(F)c2c1c(CCN(C)C)cn2C [Compound 27, 2-(7-Fluoro-1-methyl-4-propoxy-1H-indol-3-yl)-N,N-dimethylethanamine] |  |  | 75 | 96 ± 19.8 |  |  |  |  | 334 ± 88.7 | 54 | < 10 |  |  | 
8 | CCCn1cc(CCN(C)C)c2c(OC)ccc(F)c21 [Compound 28, 2-(7-Fluoro-4-methoxy-1-propyl-1H-indol-3-yl)-N,N-dimethylethanamine] |  |  | 45 | 76 ± 39.1 | < 10 |  |  |  |  |  | < 10 |  |  | 
9 | CCCn1cc(CCN(C)C)c2c(OCC)ccc(F)c21 [Compound 29, 2-(4-Ethoxy-7-fluoro-1-propyl-1H-indol-3-yl)-N,N-dimethylethanamine] |  |  | 43 | 346 ± 97 | < 10 |  |  |  |  |  | < 10 |  |  | 
10 | CCCOc1ccc(F)c2c1c(CCN(C)C)cn2CCC [Compound 30, 2-(7-Fluoro-4-propoxy-1-propyl-1H-indol-3-yl)-N,N-dimethylethanamine] |  |  | 37 | 858 ± 289 | < 10 |  |  |  |  |  | < 10 |  |  | 
11 | COc1cc(F)cc2c1c(CCN(C)C)cn2C.Cl [Compound 31, 2-(6-Fluoro-4-methoxy-1-methyl-1H-indol-3-yl)-N,N-dimethylethanamine hydrochloride] | 260.6 to 261.3 |  | 87 | 9.9 ± 3.27 |  | (21 ± 7.9 @ 10,000) % | > 10000 |  | 55 ± 7.77 | 51 |  |  |  | 
12 | CCOc1cc(F)cc2c1c(CCN(C)C)cn2C.Cl [Compound 32, 2-(4-Ethoxy-6-fluoro-1-methyl-1H-indol-3-yl)-N,N-dimethylethanamine hydrochloride] | 202.2 to 203.3 |  | 85 | 31 ± 23.6 |  | (26 ± 7.6 @ 10,000) % | > 10000 |  | 166 ± 113 | 66 |  |  |  | 
13 | CCCOc1cc(F)cc2c1c(CCN(C)C)cn2C.Cl [Compound 33, 2-(6-Fluoro-1-methyl-4-propoxy-1H-indol-3-yl)-N,N-dimethylethanamine hydrochloride] | 195.4 to 196.8 |  | 91 | 384 ± 193 |  |  |  |  | 182 ± 102 | 78 | < 10 |  |  | 
14 | CCn1cc(CCN(C)C)c2c(OC)cc(F)cc21.Cl [Compound 34, 2-(1-Ethyl-6-fluoro-4-methoxy-1H-indol-3-yl)-N,N-dimethylethanamine hydrochloride] | 233.4 to 234.9 |  | 82 | 24 ± 8.38 |  |  |  |  | 397 ± 133 | 21 | < 10 |  |  | 
15 | CCOc1cc(F)cc2c1c(CCN(C)C)cn2CC [Compound 35, 2-(4-Ethoxy-1-ethyl-6-fluoro-1H-indol-3-yl)-N,N-dimethylethanamine] | 77.1 to 78.2 |  | 88 | 246 ± 185 |  | (14 ± 4.8 @ 10,000) % | > 10000 |  | 777 ± 383 | 47 |  |  |  | 
16 | CCCOc1cc(F)cc2c1c(CCN(C)C)cn2CC [Compound 36, 2-(1-Ethyl-6-fluoro-4-propoxy-1H-indol-3-yl)-N,N-dimethylethanamine] | 68.9 to 70.1 |  | 87 | 659 ± 352 |  |  |  |  | 543 ± 325 |  | < 10 |  |  | 
17 | CCCn1cc(CCN(C)C)c2c(OC)cc(F)cc21.Cl [Compound 37, 2-(6-Fluoro-4-methoxy-1-propyl-1H-indol-3-yl)-N,N-dimethylethanamine hydrochloride] | 119.8 to 121.3 |  | 69 | 354 ± 195 | < 10 |  |  |  |  |  | < 10 |  |  | 
18 | CCCn1cc(CCN(C)C)c2c(OCC)cc(F)cc21.Cl [Compound 38, 2-(4-Ethoxy-6-fluoro-1-propyl-1H-indol-3-yl)-N,N-dimethylethanamine hydrochloride] | 154 to 156 |  | 80 | 1250 | < 10 |  |  |  |  |  | < 10 |  |  | 
19 | CCCOc1cc(F)cc2c1c(CCN(C)C)cn2CCC.Cl [Compound 39, 2-(6-Fluoro-4-propoxy-1-propyl-1H-indol-3-yl)-N,N-dimethylethanamine hydrochloride] | 170.3 to 171.4 |  | 65 | 762 ± 469 |  |  |  |  | 3120 | 26 | < 10 |  |  | 
20 | CCn1cc(CCN(C)C)c2c(OC)c(F)ccc21.Cl [Compound 41, 2-(1-Ethyl-5-fluoro-4-methoxy-1H-indol-3-yl)-N,N-dimethylethanamine hydrochloride] | 149 to 150 |  | 37 | 1.4 ± 0.19 | < 10 |  |  |  |  |  | < 10 |  |  | 
21 | CCOc1c(F)ccc2c1c(CCN(C)C)cn2C [Compound 59, 2-(4-Ethoxy-5-fluoro-1-methyl-1H-indol-3-yl)-N,N-dimethylethanamine hydrochloride] |  |  | 51 | 0.82 ± 0.23 | < 10 |  |  |  |  |  | < 10 |  |  | 
22 | CCn1cc(CCN(C)C)c2cc(F)c(O)cc21 [Compound 83, 3-[2-(Dimethylamino-ethyl)]-1-ethyl-5-fluoro-1H-indol-6-ol] |  |  |  | 221 ± 27 |  |  |  |  |  |  |  | (73 ± 4%) | N/A (N/A: <10% max HT @ 10,000 nM) | N/A (N/A: <10% max HT @ 10,000 nM)
